Data set [1] addresses T1, ZIKV NS5 RdRp (Zika virus, UniProt A0A024B7W1). Nature of the data set: Fluorescence-based alkaline phosphatase-coupled polymerase assay, RdRp enzymatic inhibition. Format: biochemical. Conditions: compounds incubated with RdRp for 30 min; WT-RdRp; read-out: IC50 to inhibit RdRp activity. The procedure:
The activity of RdRp was measured by a fluorescence-based alkaline phosphatase-coupled polymerase assay established previously in our lab. Briefly, RdRp catalyzed the transfer of adenosine 5′-monophosphate from γ-(BBT)-ATP to the RNA chain, generating the byproduct BBTppi. Subsequently, BBTppi was hydrolyzed by alkaline phosphatase to fluorescent BBT (ex/em 430/560 nm).
The plasmid pET30a-RdRp, constructed in our laboratory, was transformed into E. coli Transetta (DE3) for RdRp expression and purified. The bacteria were grown in ZYM-5052 culture medium. RdRp with the His tag was loaded on a Ni^2+ HisTrap chelating column and then eluted in a buffer containing imidazole in the ÄKTA system. The purified proteins were verified by SDS-PAGE and Western blotting. RdRp activity was analyzed using a fluorescence-based alkaline phosphatase-coupled polymerase assay. The inhibitory effect of the compounds against RdRp was evaluated using the protocol developed in our laboratory.

A short description of a further data set: in vitro. Conditions: human. The procedure:
(§1) The WST-8 assay was used to evaluate the cytotoxicity of the compounds. Huh-7 cells (1 × 10^4 cells/well) were seeded in a 96-well plate and different concentrations of compounds were added the next day. After a 24 h incubation, the supernatant was discarded and WST-8 reagent (1:10 diluted by DMEM) was added. The cell viability was assessed using a Microplate Reader (ELx808, Biotek, North Chesterfield, VA, USA) at 450 nm.

Data set [2] deals with T1, ZIKV NS5 RdRp. As to the kind of experiment: SPR binding to immobilized RdRp. Conditions: CM5 chip, 3.125–50 μM.
Description: Thus, SPR assays were carried out. RdRp protein was immobilized on a CM5 sensor chip through amine coupling.
The SPR was carried out using BIAcore T200 (GE Healthcare, Uppsala, Sweden) at 25 °C. RdRp was diluted by 10 mM sodium acetate (pH 4.5) and then immobilized on a CM5 sensor chip using an NHS/EDC amine-coupling kit in 1× PBS-P running buffer. Different concentrations (3.125–50 μM) of compounds flowed through the sensor chip surface and the RUs was detected. The equilibrium dissociation constant (KD) was fitted using the BIAcore Evaluation Software.
Another data set concerns ZIKV (SMGC-1). Nature of the data set: Anti-ZIKV activity by FACS of ZIKV E protein-positive cells. Particulars: Zika virus, read-out: EC50 anti-ZIKV activity (reduction of ZIKV E protein-positive cells). Type of data set: cell-based. The procedure: Huh-7 cells were infected with ZIKV (SMGC-1) and incubated with different concentrations of compounds. After 48 h, the cells were fixed and permeabilized, followed by staining with the FITC-anti-ZIKV E protein antibody. When detected by FACS, the FITC intensity in the given cell population reflected the ZIKV E protein-positive cells, indicting the cells infected with ZIKV.
Huh-7 cells were seeded into 24-well plates and infected with ZIKV (SMGC-1) at a multiplicity of infection (MOI) of 0.2. […] Chloroquine was used as a positive control. Cells were fixed and permeabilized for 20 min using a Fixation/Permeabilization Solution Kit. After washing, the cells were incubated with FITC-anti-ZIKV E protein antibody for 30 min. Then, ZIKV E protein-positive cells were detected in a FACS Analyzer and analyzed by FlowJo (TreeStar, Ashland, OR, USA). The EC50s of the compounds were calculated as the reduction ratio of ZIKV E protein-positive cells over the concentrations of the compounds.
Background: In flow cytometry, cells or beads pass a laser one at a time.

The subject of data set [3] is Huh-7 cells. On the set-up: method as in PMID 19760134. Particulars: ≤ 10 μM; cited from earlier work.
Data set [4] concerns Huh-7 cells. Nature of the data set: WST-8 cell viability (cytotoxicity) assay. Particulars: Huh-7 cells. The procedure:
as §1
For orientation: Tetrazolium assays rely on reduction of a dye to a coloured formazan, in cell work by metabolically active cells.

The next data set concerns dengue virus. Conditions: by targeting OSBP; read-out: EC50 dengue virus replication; cited from earlier work.
Data set [5] deals with ZIKV sub-genomic replicon RNA. Conditions: Hela cells, single concentration of 10 μM; cited from earlier work.

Read-outs that look alike come from different tables or passages of the source.

T1 sequence (A0A024B7W1 2786-3423): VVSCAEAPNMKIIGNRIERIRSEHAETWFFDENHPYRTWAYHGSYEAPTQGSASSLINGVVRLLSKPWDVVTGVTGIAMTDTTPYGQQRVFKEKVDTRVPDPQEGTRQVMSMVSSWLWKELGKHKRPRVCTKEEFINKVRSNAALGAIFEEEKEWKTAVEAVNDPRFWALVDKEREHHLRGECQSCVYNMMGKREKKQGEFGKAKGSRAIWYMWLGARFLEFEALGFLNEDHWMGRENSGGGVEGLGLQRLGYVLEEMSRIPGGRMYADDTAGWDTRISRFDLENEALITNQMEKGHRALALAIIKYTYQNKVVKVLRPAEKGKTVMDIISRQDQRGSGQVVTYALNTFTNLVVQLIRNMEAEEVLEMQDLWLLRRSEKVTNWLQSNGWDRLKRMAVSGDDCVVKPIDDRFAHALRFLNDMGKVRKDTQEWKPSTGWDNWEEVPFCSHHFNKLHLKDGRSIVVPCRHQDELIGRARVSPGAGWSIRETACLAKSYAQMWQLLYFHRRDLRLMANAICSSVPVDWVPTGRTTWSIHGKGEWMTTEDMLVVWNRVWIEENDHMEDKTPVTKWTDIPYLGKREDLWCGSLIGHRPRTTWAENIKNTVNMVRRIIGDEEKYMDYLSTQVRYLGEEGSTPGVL

Broadly, the IC50 is the midpoint of a concentration-inhibition curve. Take `CCCCCCOC(=O)NC(=N)c1ccc(NCc2nc3cc(C(=O)N(CCC(=O)OCC)c4ccccn4)ccc3n2C)cc1` [DAB, Dabigatran etexilate]: the IC50 on ZIKV NS5 RdRp [1] amounted to 11.3 µM.
Take `CCC(C)n1ncn(-c2ccc(N3CCN(c4ccc(OCC5COC(Cn6cncn6)(c6ccc(Cl)cc6Cl)O5)cc4)CC3)cc2)c1=O` (stereo not shown) [ITR, Itraconazole]: the IC50 on ZIKV NS5 RdRp [1] is 1.82 µM. In “in vitro”, this molecule had a CC50 at 24 h of more than 100 µM. In addition, the “Binding to RdRp by SPR (in words)” value on ZIKV NS5 RdRp [2] is “almost no binding signals”.
One may read the EC50 as the concentration that produces a half-maximal response. As to `CCN(CC)CCCC(C)Nc1ccnc2cc(Cl)ccc12` (stereo not shown) [chloroquine, Chloroquine], in the data set with ZIKV (SMGC-1) (Huh-7, 48 h), the EC50 came to 2.8 µM. Besides, the “Cytotoxicity to Huh-7 cells (in words)” value in the data set with Huh-7 cells [3] is on record as “no significant cytotoxicity”.
For `Cc1cc2c(C(C)C)c(O)c(O)c(C=O)c2c(O)c1-c1c(C)cc2c(C(C)C)c(O)c(O)c(C=O)c2c1O` [GOS, Gossypol (acetic acid)], in the data set “in vitro”, the CC50 at 24 h worked out at 7.79 µM. In the data set on Huh-7 cells [4] (WST-8, concentration of 5 μM), the “Cytotoxicity (in words) at 5 μM” value is reported as “obvious cell toxicity”.
In “in vitro” (Huh-7 cells), `CC[C@@H]([C@H](C)O)n1ncn(-c2ccc(N3CCN(c4ccc(OC[C@@H]5CO[C@@](Cn6cncn6)(c6ccc(F)cc6F)C5)cc4)CC3)cc2)c1=O` [POS, Posaconazole] registered a CC50 at 24 h of 101 µM. For the same molecule, the “Cytotoxicity (in words) at concentrations used in the anti-ZIKV assay” value in the data set on Huh-7 cells [4] (WST-8, 24 h, ≤ 6.4 μM) was “low”. In addition, the half-maximal effective concentration (EC50) with ZIKV (SMGC-1) (Huh-7 cells, ZIKV (SMGC-1) MOI 0.2, 48 h, FACS) was 0.59 µM; in the data set on dengue virus, 4.1 µM. In data set [5], the “Effect on replication of ZIKV sub-genomic replicon RNA (in words)” value is “inhibit the replication”.

The values are drawn from publication PMC9915956, “Identification of Potent Zika Virus NS5 RNA-Dependent RNA Polymerase Inhibitors Combining Virtual Screening and Biological Assays” (International Journal of Molecular Sciences, 2023).
